Patent EP0321100A2, “Piperazine derivatives, their acid addition salts and a process for the preparation of same” (SPOFA spojené podniky pro zdravotnickou vyrobu, priority 1987, dated 1989)
Where two headings read alike, the source gives them in different places.

How the values were obtained:
[1] = in vivo; conditions: mouse, po
[2] = target: T1, dopamine D-2 receptors in the rat brain striatum (Rattus norvegicus, UniProt P61169); assay: Inhibition of binding of 3H-spiperone to dopamine D-2 receptors; conditions: inhibition of binding of 0.5 nM ³H-spiperone, read-out: medium inhibitory concentration IC₅₀
T1 construct: dopamine D-2 receptors in the rat brain striatum; from tissue; host or cells: rat brain striatum

[3] = test system: adrenaline-induced lethality; assay: Adrenolytic activity in mice (adrenaline-induced lethality); format: in vivo; conditions: oral dose 100 mg/kg
Procedure: (§1) Discoordinating effect (rota-rod test in mice), medium effective dose ED₅₀ 44.0 mg/kg, is still […] than for thioridazine (Taeschler M., Cerletti A., Schweiz.Med. Wochschr. 88, 1216, 1958); this is advantageous. […] Adrenolytic activity in mice is very low: an oral dose as high as 100 mg/kg prevents adrenaline-induced lethality in 20 % of the animals.

[4] = Anticholinergic activity in vitro
[5] = test system: apomorphine-induced emesis in dogs; assay: Inhibition of apomorphine-induced emesis in dogs; format: in vivo; conditions: 10 mg/kg, interval of 4 hours after administration
[6] = in vivo; set-up: species or system mice; conditions: mouse, po
Procedure: as §1

[7] = Anticholinergic activity in vivo
[8] = target: T2, dopamine D-1 receptors in rat striatum (Rattus norvegicus, UniProt P18901); assay: Affinity to dopamine D-1 receptors; format: binding
T2 construct: dopamine D-1 receptors in rat striatum; from tissue; host or cells: rat striatum

[9] = test system: dopamine turnover and metabolism in rat brain striatum; assay: Antidopaminergic activity: effect on dopamine turnover and metabolism (homovanillic acid level) in rat brain; format: in vivo; conditions: for minimal effective dose: Rattus norvegicus, po, read-out: threshold dose which significantly increased homovanillic acid level; for increase in the concentration of homovanillic acid (% concentration of the metabolite in comparison with the control taken for 100 %): rat brain striatum, oral 80 mg/kg dose
[10] = test system: Maccacus rhesus monkeys; conditions: rhesus monkey, in vivo, po, 10 mg/kg
[11] = test system: re-uptake of serotonin; assay: Inhibition of re-uptake of serotonin in rat brain; format: biochemical
[12] = test system: re-uptake of noradrenaline; assay: Inhibition of re-uptake of noradrenaline in rat brain; format: biochemical
[13] = test system: spontaneous locomotor activity in mice; assay: Inhibition of spontaneous locomotor activity in mice, photocell method after Dews; format: in vivo; conditions: Mus musculus, oral, read-out: medium inhibitory dose D₅₀
[14] = test system: mice; conditions: reference compound, for comparison, literature citation given; cited from earlier work
[15] = Depot neuroleptic evaluation (method not described); format: in vivo; conditions: solution of the base (375 mg/ml) in Miglyol 812
Text: 2-{4-[2-(2-Chloro-10,11-dihydrodibenzo(b,f)thiepin-10-yloxy)ethyl]piperazin 1-yl} ethanol (compound I-A); succinate 3-{4-[2-(2-Chloro-10,11-dihydrodibenzo(b,f)thiepin-10-yloxy)ethyl]piperazin-1-yl} propanol (I-B); bis(hydrogensuccinate) 1-[2-(2-Chloro-10,11-dihydrodibenzo(b,f)thiepin-10-yloxy)ethyl]-4-methylpiperazine (I-C); bis(hydrogensuccinate) 1-[2-(2-Chloro-10,11-dihydrodibenzo(b,f)thiepin-10-yloxy)ethyl]piperazine (I-D); succinate 2-{4-[2-(2-Chloro-10,11-dihydrodibenzo(b,f)thiepin-10-yloxy)ethyl]piperazin-1-yl} ethyl acetate (I-E); bis(hydrogensuccinate) 2-{4-[2-(2-Chloro 10,11-dihydrodibenzo(b,f)thiepin-10-yloxy)ethyl]piperazin-1-yl} ethyl decanoate (I-F); tested as a solution of the base (375 mg/ml) in Miglyol 812 (Trade Mark).

T1 sequence (P61169 whole entry): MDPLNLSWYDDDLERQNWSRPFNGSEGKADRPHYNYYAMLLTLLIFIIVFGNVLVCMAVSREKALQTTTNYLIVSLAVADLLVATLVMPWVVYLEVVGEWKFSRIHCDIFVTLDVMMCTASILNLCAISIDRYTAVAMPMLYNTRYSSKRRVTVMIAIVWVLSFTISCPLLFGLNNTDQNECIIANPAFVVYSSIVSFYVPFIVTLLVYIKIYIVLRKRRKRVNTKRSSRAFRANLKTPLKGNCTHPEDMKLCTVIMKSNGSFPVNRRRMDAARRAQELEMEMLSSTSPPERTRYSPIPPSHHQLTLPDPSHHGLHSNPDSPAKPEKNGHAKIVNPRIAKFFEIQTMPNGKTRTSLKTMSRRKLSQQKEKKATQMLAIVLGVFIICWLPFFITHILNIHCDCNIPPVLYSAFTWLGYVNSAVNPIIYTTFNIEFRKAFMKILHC
T2 sequence (P18901 whole entry): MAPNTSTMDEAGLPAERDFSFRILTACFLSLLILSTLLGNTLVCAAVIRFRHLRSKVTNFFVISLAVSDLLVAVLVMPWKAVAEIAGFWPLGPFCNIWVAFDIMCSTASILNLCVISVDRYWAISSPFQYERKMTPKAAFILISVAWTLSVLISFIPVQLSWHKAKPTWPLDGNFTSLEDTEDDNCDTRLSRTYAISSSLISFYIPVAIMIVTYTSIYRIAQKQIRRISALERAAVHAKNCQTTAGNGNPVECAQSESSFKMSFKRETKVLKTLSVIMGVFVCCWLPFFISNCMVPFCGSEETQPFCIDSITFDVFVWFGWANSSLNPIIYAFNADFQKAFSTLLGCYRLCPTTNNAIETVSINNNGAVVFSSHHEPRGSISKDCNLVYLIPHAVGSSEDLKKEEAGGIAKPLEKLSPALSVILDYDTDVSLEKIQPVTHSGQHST

Compound: CN1CCN(CCOC2Cc3cc(Cl)ccc3Sc3ccccc32)CC1 (centres unmarked) [I-C, 1-[2-(2-Chloro-10,11-dihydrodibenzo(b,f)thiepin-10-yloxy)ethyl]-4-methylpiperazine]
- LD50 [1]: 401 mg/kg
- IC50 [2]: 0.264 µM

Compound: OCCN1CCN(CCOC2Cc3cc(Cl)ccc3Sc3ccccc32)CC1 (centres unmarked) [I-A, 2-{4-[2-(2-Chloro-10,11-dihydrodibenzo(b,f)thiepin-10-yloxy)ethyl]piperazin-1-yl} ethanol]
- prevention of adrenaline-induced lethality, share of the animals [3]: 20%
- anticholinergic activity [4]: very low
- inhibition of apomorphine-induced emesis [5]: inhibitory effect
- LD50 [1]: 346 mg/kg
- TD50 [6]: 44 mg/kg
- anticholinergic activity [7]: very low
- affinity to dopamine D-1 receptors [8]: slight affinity
- minimal effective dose ([9]; corpus striatum): 20 mg/kg
- minimal effective dose ([9]; tuberculum olfactorium): 10 mg/kg
- increase in the concentration of homovanillic acid (% concentration of the metabolite in comparison with the control taken for 100 %) [9]: 504%
- blood pressure [10]: do not affect
- general behaviour of the animals [10]: do not affect
- heart rhythm (pulse rate) [10]: do not affect
- IC50 [2]: 0.212 µM
- inhibition of re-uptake of serotonin [11]: weak inhibitor
- inhibition of re-uptake of noradrenaline [12]: weak inhibitor
- ED50 [13]: 15.7 mg/kg

Compound: OCCCN1CCN(CCOC2Cc3cc(Cl)ccc3Sc3ccccc32)CC1 (centres unmarked) [I-B, 3-{4-[2-(2-Chloro-10,11-dihydrodibenzo(b,f)thiepin-10-yloxy)ethyl]piperazin-1-yl} propanol]
- LD50 [1]: 618 mg/kg
- IC50 [2]: 0.35 µM

Compound: CN1CCN(C2=Nc3cc(Cl)ccc3Nc3ccccc32)CC1 [clozapine, reference compound]
- acute toxicity, LD₅₀ [14]: 199 mg/kg
- ED50 [13]: 1.05 mg/kg

Compound: CC(=O)OCCN1CCN(CCOC2Cc3cc(Cl)ccc3Sc3ccccc32)CC1 (racemic) [I-E, 2-{4-[2-(2-Chloro-10,11-dihydrodibenzo(b,f)thiepin-10-yloxy)ethyl]piperazin-1-yl} ethyl acetate]
- LD50 [1]: 691 mg/kg
- increase in the concentration of homovanillic acid (% concentration of the metabolite in comparison with the control taken for 100 %) [9]: 244%
- IC50 [2]: 0.219 µM

Compound: CCCCCCCCCC(=O)OCCN1CCN(CCOC2Cc3cc(Cl)ccc3Sc3ccccc32)CC1 (racemic) [I-F, 2-{4-[2-(2 Chloro-10,11-dihydrodibenzo(b,f)thiepin-10-yloxy)ethyl]piperazin-1-yl} ethyl decanoate]
- duration of neuroleptic action [15]: substantially prolonged action

Compound: Clc1ccc2c(c1)CC(OCCN1CCNCC1)c1ccccc1S2 (centres unmarked) [I-D, 1-[2-(2-Chloro-10,11-dihydrodibenzo(b,f)thiepin-10-yloxy)ethyl]piperazine]
- LD50 [1]: 509 mg/kg
- IC50 [2]: 1 µM
